Measured values published in patent US8604190B2, “Hetero isonipecotic modulators of vanilloid VR1 receptor” (Janssen Pharmaceutica NV, priority 2004, dated 2013).

target: T1, human VR1 (Homo sapiens, UniProt Q8NER1); assay: Human VR1 functional assay (FLIPR, intracellular Ca++); format: cell-based; settings: A431 cells expressing human VR1, Ca++-sensitive dye, dose-response
T1 construct: expressed in transfected cells; host or cells: A431 cells
Protocol: The compounds of the invention were tested using a high throughput VR-1 FLIPR assay.
Human VR1 Functional Assay
The functional activity of the test compounds was determined by measuring changes in intracellular calcium concentration using a Ca^++-sensitive fluorescent dye and FLIPR™ technology. Increases in Ca^++ concentration were readily detected upon challenge with resiniferatoxin (RTX). A431 cells expressing human VR1 were seeded on polystyrene 384-well back walled clear bottom assay plates coated with collagen and incubated for 3-4 hours at 37° C. with 5% CO2 in DMEM. Plates were loaded with […] of 2× Dye Solution, incubated for 1-1.5 hours and subsequently tested for agonist-induced increases in intracellular Ca^2+ levels using FLIPR™ technology. Cells were challenged with test compounds (at varying concentrations) and intracellular Ca^++ was measured prior to the addition of resiniferatoxin to all wells to elicit ˜80% maximal response. EC50 or IC50 values were determined from dose-response studies.

T1 sequence (Q8NER1 whole entry): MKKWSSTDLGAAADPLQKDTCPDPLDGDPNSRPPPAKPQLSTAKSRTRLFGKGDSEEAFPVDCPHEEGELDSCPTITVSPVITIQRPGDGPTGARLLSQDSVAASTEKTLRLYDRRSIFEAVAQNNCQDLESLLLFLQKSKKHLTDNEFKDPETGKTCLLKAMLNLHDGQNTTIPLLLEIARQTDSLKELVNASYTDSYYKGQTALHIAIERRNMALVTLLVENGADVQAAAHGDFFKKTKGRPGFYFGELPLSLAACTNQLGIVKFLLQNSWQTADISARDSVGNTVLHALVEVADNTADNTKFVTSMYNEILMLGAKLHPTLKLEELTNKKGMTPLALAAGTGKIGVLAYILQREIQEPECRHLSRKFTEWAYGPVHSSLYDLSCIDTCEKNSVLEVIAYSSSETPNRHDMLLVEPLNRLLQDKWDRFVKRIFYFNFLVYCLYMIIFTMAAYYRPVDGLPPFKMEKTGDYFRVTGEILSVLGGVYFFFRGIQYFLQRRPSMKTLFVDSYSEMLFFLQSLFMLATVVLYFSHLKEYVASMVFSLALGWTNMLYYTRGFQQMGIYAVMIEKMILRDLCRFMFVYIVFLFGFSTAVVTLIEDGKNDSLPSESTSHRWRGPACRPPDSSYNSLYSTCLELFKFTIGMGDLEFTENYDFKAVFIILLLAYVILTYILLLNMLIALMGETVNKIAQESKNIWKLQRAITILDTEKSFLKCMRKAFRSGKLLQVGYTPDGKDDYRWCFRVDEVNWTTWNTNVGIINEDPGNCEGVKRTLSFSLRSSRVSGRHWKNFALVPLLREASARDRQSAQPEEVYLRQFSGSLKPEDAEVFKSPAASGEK

| SMILES | EC50 [nM] |
| --- | --- |
| CC(=O)N1CCN(C(=O)C2CCN(c3cccc(-c4ccccc4)c3)CC2)CC1 [Compound 30] | 3800 |
| O=C(C1CCN(c2cccc(C(F)(F)F)c2)CC1)N1CCOCC1 [Compound 5, [1-(3-Trifluoromethyl-phenyl)-piperidin-4-yl]-morpholin-4-yl-methanone] | 330 |
| O=C(C1CCN(c2cc(F)cc(F)c2)CC1)N1CCCCC1 [Compound 20] | 2050 |
| Cc1ccccc1N1CCC(C(=O)N2CCCCC2)CC1 [Compound 26] | 3260 |
| Cc1cccc(N2CCC(C(=O)N3CCSCC3)CC2)c1C [Compound 7] | 760 |
| O=C(C1CCN(c2cccc3ccccc23)CC1)N1CCSC1 [Compound 24] | 3100 |
| O=C(C1CCN(c2cc(F)cc(F)c2)CC1)N1CCSCC1 [Compound 18] | 1970 |
| Cc1cccc(N2CCC(C(=O)N3C(C)CCCC3C)CC2)c1C (centres unmarked) [Compound 35] | 4600 |
| Cc1ccccc1N1CCC(C(=O)N2CCOCC2)CC1 [Compound 13] | 1590 |
| O=C(C1CCN(c2cc(F)cc(F)c2)CC1)N1CCC(O)CC1 [Compound 23] | 2800 |
| Cc1ccc(N2CCC(C(=O)N3CCCCC3)CC2)cc1F [Compound 10] | 1300 |
| Cc1ccc(N2CCC(C(=O)N3CCSCC3)CC2)cc1C [Compound 6, [1-(3,4-Dimethyl-phenyl)-piperidin-4-yl]-thiomorpholin-4-yl-methanone] | 340 |
| Cc1ccccc1N1CCC(C(=O)N2CCCCCC2)CC1 [Compound 25] | 3200 |
| COc1cccc(N2CCC(C(=O)N3CCSCC3)CC2)c1 [Compound 34] | 4370 |
| O=C(C1CCN(c2cccc(C(F)(F)F)c2)CC1)N1CCCCC1 [Compound 28] | 3700 |
| Cc1ccccc1N1CCC(C(=O)N2CCSCC2)CC1 [Compound 1, (1-o-Tolyl-piperidin-4-yl)-thiomorpholin-4-yl-methanone] | 230 |
| Cc1ccc(N2CCC(C(=O)N3CCC(O)CC3)CC2)cc1F [Compound 22] | 2300 |
| Cc1ccc(N2CCC(C(=O)N3CCSCC3)CC2)cc1F [Compound 4, [1-(3-Fluoro-4-methyl-phenyl)-piperidin-4-yl]-thiomorpholin-4-yl-methanone] | 270 |
| Cc1ccccc1N1CCC(C(=O)N2CCCC2)CC1 [Compound 38] | 7840 |

| SMILES | EC50 [nM] |
| --- | --- |
| Cc1cccc(N2CCC(C(=O)N3CCSC3)CC2)c1C [Compound 16] | 1890 |
| O=C(C1CCN(c2cccc3ccccc23)CC1)N1CCCCC1 [Compound 17] | 1910 |
| O=C(C1CCN(c2cccc(-c3ccccc3)c2)CC1)N1CCCCC1 [Compound 33] | 4100 |
| Cc1cccc(N2CCC(C(=O)N3CCCCC3)CC2)c1 [Compound 29] | 3800 |
| Cc1cccc(N2CCC(C(=O)N3CCCCC3)CC2)c1C [Compound 14] | 1640 |
| COc1cccc(N2CCC(C(=O)N3CCOCC3)CC2)c1 [Compound 27] | 3530 |
| O=C(C1CCN(c2cccc(-c3ccccc3)c2)CC1)N1CCSCC1 [Compound 21] | 2200 |
| Cc1ccccc1N1CCC(C(=O)N2CCSC2)CC1 [Compound 37] | 5400 |
| Cc1ccc(N2CCC(C(=O)N3CCOCC3)CC2)cc1F [Compound 19] | 2000 |
| Cc1ccc(N2CCC(C(=O)N3CCCCC3)CC2)cc1C [Compound 9] | 1040 |
| Cc1ccc(N2CCC(C(=O)N3CCC(O)CC3)CC2)cc1C [Compound 8] | 910 |
| O=C(C1CCN(c2cc(F)cc(F)c2)CC1)N1CCOCC1 [Compound 15] | 1850 |
| Cc1cccc(N2CCC(C(=O)N3CCC(O)CC3)CC2)c1C [Compound 2, [1-(2,3-Dimethyl-phenyl)-piperidin-4-yl]-(4-hydroxy-piperidin-1-yl)-methanone] | 240 |
| Cc1ccc(N2CCC(C(=O)N3CCOCC3)CC2)cc1C [Compound 12] | 1500 |
| Cc1cccc(N2CCC(C(=O)N3CCOCC3)CC2)c1 [Compound 32] | 4100 |
| CC(=O)N1CCN(C(=O)C2CCN(c3cccc(C)c3C)CC2)CC1 [Compound 31] | 4000 |
| Cc1ccccc1N1CCC(C(=O)N2CCC(O)CC2)CC1 [Compound 11] | 1420 |
| Cc1cccc(N2CCC(C(=O)N3CCC(O)C3)CC2)c1C (centres unmarked) [Compound 36] | 5200 |
| O=C(C1CCN(c2cccc(-c3ccccc3)c2)CC1)N1CCOCC1 [Compound 3, (1-Biphenyl-3-yl-piperidin-4-yl)-morpholin-4-yl-methanone] | 270 |
